From patent US4118424A, “Biodegradable insecticides” (priority 1976, dated 1978)
Values after ≈ are worked out from the molar mass of the structure shown.

Key:
Phormia regina = test: Insect toxicity, Phormia regina; type: in vivo
mice = test: Mouse toxicity, LD50; type: in vivo; conditions: versus ethoxychlor
Mouse toxicity, LD50 = type: in vivo, mice; conditions: in vivo
Culex fatigans = test: Persistence on plywood surfaces of test huts, Culex fatigans; type: in vivo; conditions: adult mosquitoes
Experimental: (§1) The persistence of some of the compounds of the present invention was evaluated and compared with that of ethoxychlor. In these tests, the compounds were applied to the plywood surfaces of test huts and the mortalities of adult mosquitoes contained in the huts were measured to determine the number of weeks that 50% mortality continued to occur.

[1] = tested on: Anopheles albimanus larvae; test: Insect toxicity, Anopheles albimanus larvae; type: in vivo
Anopheles albimanus = test: Persistence on plywood surfaces of test huts, Anopheles albimanus; type: in vivo; conditions: adult mosquitoes
Experimental: as §1

[2] = tested on: green sunfish (Lepomis cyanellus); test: Green sunfish toxicity over a period of time; type: in vivo; conditions: initial concentration 0.1 ppm
Text: The compounds of Example III, V, XI, XIV and XXI were further tested and compared with ethoxychlor to determine fish toxicities over a period of time. In these tests, green sunfish (Lepomis cyanellus) were subject to an initial concentration dosage of 0.1 ppm and the number of days that 100 percent mortalities occurred was observed.

Culex fatigans adults = test: Insect toxicity, Culex fatigans adults; type: in vivo
[3] = tested on: Musca domestica Rsp strain; test: Insect toxicity, Musca domestica Rsp strain, DDT-resistant; type: in vivo; conditions: for LD50: Musca domestica, without PB; for Musca domestica Rsp strain w/PB LD50: with PB
[4] = tested on: Musca domestica (NAIDM strain); test: Insect toxicity, Musca domestica NAIDM strain; type: in vivo; conditions: for LD50: Musca domestica, without PB; for Musca domestica NAIDM (w/PB) LD50: with PB
Culex fatigans larvae = test: Insect toxicity, Culex fatigans larvae; type: in vivo; conditions: Culex quinquefasciatus
[5] = tested on: Anopheles albimanus adults; test: Insect toxicity, Anopheles albimanus adults; type: in vivo
[6] = tested on: insects (flies and mosquitoes); test: Insecticidal activity, general statement; type: in vivo; conditions: versus ethoxychlor
Text: Metabolic studies involving insects, mice, and fish and a model ecosystem (such as described in U.S. Pat. No. 3,787,505) and insecticidal activity studies generally involving flies and mosquitoes have shown that both the symmetrical and the asymmetrical compounds of the present invention are effective. Thus, the new compounds can be represented by the general formula: [drawing 3] where R1 is H or Cl and R2 is CH3 or Cl, X and X^1 are the same or different and each is selected from the group consisting of C1 to C3 alkyl groups and C1 to C4 alkoxy groups.

SMILES	LD50 (Phormia regina) [mg/kg]	safety to mice relative to ethoxychlor (mice)	LD50 (Mouse toxicity, LD50) [mg/kg]	Culex fatigans, P50 (number of weeks that at least 50% mortality occurred) (Culex fatigans) [weeks]	LC50 [1] [µg/mL]	Anopheles albimanus, P50 (number of weeks that at least 50% mortality occurred) (Anopheles albimanus) [weeks]	Number of days 100% mortality [2] [days]	Culex fatigans adults-LC50 (Culex fatigans adults) [ug/cm^2]	LD50 [3] [mg/kg]	Musca domestica Rsp strain w/PB LD50 [3] [µg/g]	LD50 [4] [mg/kg]	Musca domestica NAIDM (w/PB) LD50 [4] [µg/g]	LC50 (Culex fatigans larvae) [µg/mL]	Anopheles albimanus adults LC50 [5] [ug/cm^2]	insecticidal activity relative to ethoxychlor [6]
CCOc1ccc(C(c2ccc(C)cc2)C(C)Cl)cc1 (stereo not drawn) [Example III]	6.75	at least five times safer to mice than is ethoxychlor	≥ 1000	> 8	0.09 (≈ 0.312 µM)	> 6	0	10	95	14	39	10	0.08 (≈ 0.277 µM)	1.1	at least generally comparable to ethoxychlor
Cc1ccc(C(c2ccc(C)cc2)C(C)Cl)cc1 (stereo not drawn) [Example II]	> 250	–	–	–	> 1	–	–	9.7	> 500	140	> 500	24.5	0.22 (≈ 0.85 µM)	6.9	–
CCOc1ccc(C(c2ccc(OCC)cc2)C(C)(Cl)Cl)cc1 [Example XIX]	24	–	< 300	40	0.041 (≈ 0.116 µM)	> 20	–	> 160	90	23.5	17.5	7	0.094 (≈ 0.266 µM)	49	–
CCOc1ccc(C(c2ccc(OCC)cc2)C(C)C)cc1 [Example XI]	14.5	at least five times safer to mice than is ethoxychlor	≥ 1000	40	0.028 (≈ 0.0938 µM)	> 44	> 35	14.3	38	12.5	21.5	3.5	0.08 (≈ 0.268 µM)	4.5	at least generally comparable to ethoxychlor
CCOc1ccc(C(c2ccc(OC)cc2)C(C)C)cc1 (stereo not drawn) [Example X]	28.5	–	–	–	0.17 (≈ 0.598 µM)	–	–	16.5	110	17.5	65	12	0.13 (≈ 0.457 µM)	6.3	–
CCOc1ccc(C(c2ccc(OC)cc2)C(C)Cl)cc1 (stereo not drawn) [IV]	12	–	–	–	0.15 (≈ 0.492 µM)	–	–	> 160	100	4.8	47	4.7	0.15 (≈ 0.492 µM)	27	–
CCCc1ccc(C(c2ccc(CCC)cc2)C(C)Cl)cc1 (stereo not drawn) [IX]	> 250	–	–	–	0.068 (≈ 0.216 µM)	–	–	> 160	120	90	55	45	0.145 (≈ 0.46 µM)	17	–
CCCc1ccc(C(c2ccc(C)cc2)C(C)Cl)cc1 (stereo not drawn) [VIII]	97.5	–	–	–	0.18 (≈ 0.628 µM)	–	–	12	155	85	65	29	0.18 (≈ 0.628 µM)	7.2	–
CCCOc1ccc(C(c2ccc(OCCC)cc2)C(C)Cl)cc1 (stereo not drawn) [VII]	42.5	–	–	–	0.16 (≈ 0.461 µM)	–	–	> 160	85	42	28	10	0.12 (≈ 0.346 µM)	> 160	–
CCCOc1ccc(C(c2ccc(OCC)cc2)C(C)Cl)cc1 (stereo not drawn) [VI]	62.5	–	–	–	0.075 (≈ 0.225 µM)	–	–	> 160	25	5.5	15.5	3.2	0.05 (≈ 0.15 µM)	14.5	–
CCOc1ccc(C(c2ccc(OCC)cc2)C(C)Cl)cc1 (stereo not drawn) [V]	4.62	at least five times safer to mice than is ethoxychlor	≥ 1000	> 70	0.047 (≈ 0.147 µM)	> 80	4	56	18	4.9	9.5	2	0.054 (≈ 0.169 µM)	7.9	at least generally comparable to ethoxychlor
CCCOc1ccc(C(c2ccc(OCCC)cc2)C(C)C)cc1 [XIII]	200	–	–	–	0.25 (≈ 0.766 µM)	–	–	> 160	185	–	100	21.5	0.3 (≈ 0.919 µM)	> 160	–
CCCOc1ccc(C(c2ccc(OCC)cc2)C(C)C)cc1 (stereo not drawn) [XII]	60	at least five times safer to mice than is ethoxychlor	≥ 1000	–	0.056 (≈ 0.179 µM)	–	–	> 160	42	22.5	21	6.5	0.39 (≈ 1.25 µM)	35	at least generally comparable to ethoxychlor
COc1ccc(C(c2ccc(OC)cc2)C(C)(Cl)Cl)cc1 [XVIII]	13.5	–	–	–	0.18 (≈ 0.553 µM)	–	–	> 160	155	9.5	65	8	0.061 (≈ 0.188 µM)	1.63	–
Cc1ccc(C(c2ccc(C)cc2)C(C)(Cl)Cl)cc1 [XVII]	8	–	–	–	0.13 (≈ 0.443 µM)	–	–	8.0	270	7.0	145	18	0.2 (≈ 0.682 µM)	5	–
CCCCOc1ccc(C(c2ccc(C)cc2)C(C)C)cc1 (stereo not drawn) [XVI]	> 250	–	–	–	0.19 (≈ 0.641 µM)	–	–	> 160	> 500	> 500	> 500	240	> 1	> 160	–
CCCOc1ccc(C(c2ccc(C)cc2)C(C)C)cc1 (stereo not drawn) [XV]	250	–	–	–	0.42 (≈ 1.49 µM)	–	–	> 160	370	220	175	100	0.55 (≈ 1.95 µM)	29	–
CCOc1ccc(C(c2ccc(OCC)cc2)C(C)(C)Cl)cc1 [XXI]	> 250	at least five times safer to mice than is ethoxychlor	≥ 1000	–	> 1	–	0	> 160	180	25.5	115	12	> 1	> 160	at least generally comparable to ethoxychlor
COc1ccc(C(c2ccc(OC)cc2)C(C)(C)Cl)cc1 [XX]	75	–	–	–	> 1	–	–	> 160	> 500	26	> 500	12	> 1	16	–
CCOc1ccc(C(c2ccc(OCC)cc2)C(Cl)(Cl)Cl)cc1 [ethoxychlor, reference compound]	–	–	–	8	–	> 44	21	–	–	–	–	–	–	–	–
